Experiment [1] concerns SARS-CoV-2 variants and other human coronaviruses. The experiment can be described thus: microbe, parasite or virus in culture. Type of experiment: cell-based. The following applies: Severe acute respiratory syndrome coronavirus 2, read-out: IC50 (antiviral).
For experiment [2], the system named is 3CLpro S301P recombinant SARS-CoV-2. The experiment is classed as cell-based. The following applies: for IC50: read-out: IC50 (plaque formation assay).
Experiment [3] has as its system SARS-COV-2 Alpha variant (B.1.1.7). The experiment is classed as in vivo, K18-hACE2 transgenic mice. The note with it: n=5, IP once daily; 172 50 mg/kg, Nirmatrelvir 200 mg/kg; vehicle mice died day 5-6.

Each structure is given as a SMILES string.

The IC50 is the concentration that inhibits the measured activity by half.

`CC(C)(C)[C@H](NC(=O)C(F)(F)F)C(=O)N1C[C@H]2[C@@H]([C@H]1C(=O)N[C@H](C#N)C[C@@H]1CCNC1=O)C2(C)C` [Nirmatrelvir]: the IC50 is 4.5 to 32 nM in experiment [1] and 20.1 nM in experiment [2]. Further, the “time of death (survival)” value in experiment [3] was “one mouse died on day 6, and all remaining mice died on day 8”.
As for `CCOc1cc2ncc(C#N)c(Nc3ccc(F)c(Cl)c3)c2cc1NC(=O)/C=C/CN(C)C` [Pelitinib], in experiment [2], the “inhibition of virus replication” value is given as “not the mutant virus” and the IC50 is 7300 nM.

These data come from US20250325535A1, “IDENTIFICATION OF NOVEL SMALL-MOLECULE INHIBITORS OF SARS-CoV-2 BY CHEMICAL GENETICS” (The University of Hong Kong, priority 2024, published 2025).
